Measurements: PubChem BioAssay (NCI)
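Values below derive from 48-hour exposures of cells grown in 96-well plates, with endpoints linearly interpolated between the two concentrations bracketing the appropriate inhibition level. Here, GI50 denotes the concentration required for 50% inhibition of growth. At the TGI there is no net growth.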

How the values were obtained:
Test in all cases: NCI-60 cell line screen, 48 h
BT-549 breast = tested on: BT-549 breast
LOX IMVI melanoma = tested on: LOX IMVI melanoma
NCI-H226 lung = tested on: NCI-H226 lung
NCI-H23 lung = tested on: NCI-H23 lung
NCI-H522 lung = tested on: NCI-H522 lung
NCI/ADR-RES ovarian = tested on: NCI/ADR-RES ovarian
SF-268 CNS = tested on: SF-268 CNS
SK-OV-3 ovarian = tested on: SK-OV-3 ovarian
SR leukemia = tested on: SR leukemia
UO-31 renal = tested on: UO-31 renal

| SMILES | GI50 (BT-549 breast) | TGI (BT-549 breast) | GI50 (LOX IMVI melanoma) | TGI (LOX IMVI melanoma) | GI50 (NCI-H226 lung) | TGI (NCI-H226 lung) | GI50 (NCI-H23 lung) | TGI (NCI-H23 lung) | GI50 (NCI-H522 lung) | TGI (NCI-H522 lung) | GI50 (NCI/ADR-RES ovarian) | TGI (NCI/ADR-RES ovarian) | GI50 (SF-268 CNS) | TGI (SF-268 CNS) | GI50 (SK-OV-3 ovarian) | TGI (SK-OV-3 ovarian) | GI50 (SR leukemia) | TGI (SR leukemia) | TGI (UO-31 renal) | GI50 (UO-31 renal) |
| --- | --- | --- | --- | --- | --- | --- | --- | --- | --- | --- | --- | --- | --- | --- | --- | --- | --- | --- | --- | --- |
| Nc1n[nH]c2ccc([C@@H]3Nc4cc5c(cc4[C@H]4C6CCC(C6)[C@@H]34)C(=O)NC5)cc12 (some centres not stated) | 0.32 µM | 1.71 µM | 0.291 µM | > 100 µM | 0.461 µM | > 20.9 µM | 0.431 µM | > 100 µM | 0.305 µM | > 100 µM | 2.69 µM | > 100 µM | 1.04 µM | > 100 µM | 0.844 µM | > 100 µM | 0.149 µM | > 100 µM | > 100 µM |  |
| CCC(=O)Nc1ccc(N2C(=O)/C(=C/c3ccc(OC)cc3)N=C2c2ccccc2)cc1 | 10.9 µM | 36.4 µM | 2.51 µM | 13.2 µM | 8.93 µM | 33.7 µM | 13.3 µM | > 50 µM | 48.5 µM | > 50 µM | 9.77 µM | > 50 µM | 4.88 µM | > 50 µM |  |  | 1.4 µM | > 50 µM | > 50 µM | 30 µM |
| CN1CCN(CCCCCN=c2cc3c(=O)n(CCCCCN4CCN(C)CC4)c(=O)c4c(NCCCCCN5CCN(C)CC5)cc5c(O)n(CCCCCN6CCN(C)CC6)c(=O)c2c5c4-3)CC1 | 4.34 µM | 15.7 µM | 2.94 µM | 12.8 µM | 3.25 µM | 21.6 µM | 6.65 µM | 46.3 µM | 1.46 µM | 3.93 µM | > 100 µM | > 100 µM | 2.07 µM | 6.09 µM | 2.03 µM | 5.62 µM | 4.01 µM | 25.1 µM | > 100 µM | 75 µM |
| Cc1cc(C)c(C2CNCc3cc4c(cc32)CNCC4c2c(C)cc(C)cc2C)c(C)c1 (configuration not stated) | 4.39 µg/mL | 15.9 µg/mL | 1.85 µg/mL | 4.31 µg/mL | 13.4 µg/mL | 26.5 µg/mL | 15.9 µg/mL | 30.4 µg/mL | 3.23 µg/mL | 9.18 µg/mL | 6.38 µg/mL | 19.5 µg/mL | 3.17 µg/mL | 9.96 µg/mL | 10.2 µg/mL | 21.8 µg/mL | 0.303 µg/mL | 1 µg/mL | 5.56 µg/mL | 2.04 µg/mL |
| CNNC(=NS(=O)(=O)c1cc(C#N)c(NNC)cc1S)NNC |  | > 10 µM |  | > 10 µM |  | > 10 µM |  | > 10 µM |  | > 10 µM |  | > 10 µM |  | > 10 µM |  | > 10 µM |  | > 10 µM | > 10 µM |  |
| CCCCNc1nc(NC2OCC(OC(C)=O)C(OC(C)=O)C2OC(C)=O)c(N=O)c(=O)n1C (configuration not stated) |  | > 10 µM |  | > 10 µM |  | > 10 µM |  | > 10 µM |  | > 10 µM |  | > 10 µM |  | > 10 µM |  | > 10 µM |  | > 10 µM |  |  |
| COc1cc(/C=C/c2ccc3c(Br)cc(Br)c(O)c3n2)ccc1O | 2.61 µM | 13.6 µM | 0.977 µM | 11.4 µM | 4.61 µM | 17.4 µM | 1.99 µM | 16.4 µM | 2.36 µM | 11 µM | 0.327 µM | 1.49 µM | 1.31 µM | 14.8 µM | 6.62 µM | 31.8 µM | 0.476 µM | 3.41 µM | 12.4 µM | 1.28 µM |
| C[C@@H]1Cc2cc(O)ccc2[C@H]2CC[C@]3(C)/C(=C/COCCN(C)C)CC[C@H]3[C@H]12 (tested in a mixture with another compound) | 0.294 µM | 0.8 µM | 0.187 µM | 0.389 µM | 0.744 µM | 1.97 µM | 0.107 µM | 0.36 µM | 0.131 µM | 0.735 µM | 0.192 µM | 0.419 µM | 0.111 µM | 0.235 µM | 0.228 µM | 0.62 µM | 0.212 µM | 0.55 µM | 0.514 µM | 0.221 µM |
| O=C(NNS(=O)(=O)c1ccc(Cl)cc1Cl)c1cccnc1Nc1ccc(Cl)cc1 | 16.8 µM | 35 µM | 21.1 µM | 46.5 µM | 23.9 µM | 58.5 µM | 17.3 µM | 42.6 µM |  |  | 23.4 µM | 76.5 µM | 36.5 µM | > 100 µM | 17.1 µM | 52.4 µM | 14.8 µM | 38.1 µM | > 100 µM | 37.2 µM |
| COc1ccc(C(=O)/C=C/c2ccc(OCC#N)cc2)cc1 |  | 31.6 µM |  |  |  | 88.8 µM |  | 49.6 µM |  | 35.6 µM |  | 50 µM |  | > 100 µM |  | > 100 µM |  | 49.5 µM | 30.6 µM |  |
| NNc1nnc(-c2nnc(NN)o2)o1 |  | > 10 µM |  |  |  | > 10 µM |  | > 10 µM |  |  |  | > 10 µM |  | > 10 µM |  |  |  | > 10 µM | > 10 µM |  |
| Fc1ccc(/C=N/n2c(-c3ccc(F)c(Cl)c3)n[nH]c2=S)cc1 | 78.5 µM | > 100 µM |  |  | 36.5 µM | 83.8 µM | 18.8 µM | 38.2 µM | 23.3 µM | 52.2 µM | 23.4 µM | 59.4 µM | 19.8 µM | 42.1 µM | 22 µM | 38.5 µM | 12.9 µM | 27.9 µM | 41.5 µM | 18.9 µM |
| c1cc(N2CCN(c3ccc(C4=NCCCN4)cc3)CC2)ccc1C1=NCCCN1 | > 100 µM | > 100 µM |  | > 77.9 µM | 59.3 µM | > 100 µM | 30 µM | > 100 µM | > 55.9 µM | > 100 µM | > 100 µM | > 100 µM | > 75.8 µM | > 100 µM | > 100 µM | > 100 µM |  |  | > 100 µM | > 100 µM |
| COc1cc2ncc3c(nc4sccn43)c2cc1OC | 37.1 µM | > 100 µM | 15.6 µM | > 100 µM |  |  | 80.4 µM | > 100 µM | 86.1 µM | > 100 µM | 93.3 µM | > 100 µM | > 100 µM | > 100 µM | 30.1 µM | > 100 µM | 12.4 µM | 41.7 µM | > 100 µM | 33.6 µM |
| CC(CO)(Nc1ccc([N+](=O)[O-])cc1[N+](=O)[O-])C(=O)O (configuration not stated) |  | 67.2 µM |  | 48.2 µM |  | > 100 µM |  | 62.4 µM |  | 39 µM |  | > 100 µM |  | 48.9 µM |  |  |  | 24.8 µM | 37.4 µM |  |
